Activity data for 1 molecule are collected here from ChEMBL document CHEMBL4613240, “Pagoamide A, a Cyclic Depsipeptide Isolated from a Cultured Marine Chlorophyte, Derbesia sp., Using MS/MS-Based Molecular Networking” (J Nat Prod, 2020).

Structures are written as SMILES. Calls of active or inactive are those of the source. The rule behind the calls is not given here.

The subject of experiment [1] is Cerebral cortex neuron. Nature of the experiment: Modulation of calcium oscillation in Swiss-Webster gravid dams mouse cerebrocortical neurons measured for 2 mins on day 12 by fluo-3 AM dye based fluorescence assay. It counts as functional, cell-based.
Experiment [2] deals with NCI-H460. Nature of the experiment: Cytotoxicity against human NCI-H460 cells at 30 uM incubated for 48 hrs by MTT assay. It counts as functional, cell-based. On the technique in general: Tetrazolium dyes change colour on reduction, which living cells bring about.

Consider `CC(C)[C@@H]1NC(=O)[C@@H](Cc2ccccc2)NC(=O)[C@@H](C)NC(=O)[C@H](CO)NC(=O)[C@@H](NC(=O)[C@@H](CO)NC(=O)c2csc(CNC(=O)c3csc([C@H](C(C)C)N(C)C)n3)n2)[C@@H](C)OC(=O)[C@H](Cc2ccccc2)NC1=O`, for which the result in experiment [1] and in experiment [2] was inactive.
